Laboratory results as given in US20170198006A1, “PRMT5 INHIBITORS AND USES THEREOF” (Epizyme, Inc., priority 2014, published 2017).

How the values were obtained:
PRMT5/MEP50 = molecular target: T1, PRMT5/MEP50 (Homo sapiens, UniProt O14744); test: PRMT5 Biochemical Assay (PRMT5/MEP50 enzyme assay on histone H4 peptide substrate, 3H-SAM Flashplate); settings: PRMT5 biochemical assay; read-out: Biochemical IC50
T1 construct: Flag-PRMT5; made in house; host or cells: Spodoptera frugiperda (SF9), baculovirus
Summary of the method: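 Sf9-expressed Flag-PRMT5/6His-MEP50 preincubated with compound 30 min at 25 °C, then methylation of biotinylated H4 1-15 peptide started with ³H-SAM in 20 mM Bicine pH 7.6, 1 mM TCEP, 0.005% BSG, 0.002% Tween20.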

[1] = system: symmetric di-methyl arginine in Z-138 cells; test: Z-138 Methylation Assay (In Cell Western for symmetric di-methyl arginine and DNA content); assay type: cell-based; settings: Homo sapiens, read-out: ICW EC50
Excerpt: Z-138 suspension cells were purchased from ATCC (American Type Culture Collection, Manassas, Va.). RPMI/Glutamax medium, penicillin-streptomycin, heat inactivated fetal bovine serum, and D-PBS were purchased from Life Technologies, Grand Island, N.Y., USA. Odyssey blocking buffer, 800CW goat anti-rabbit IgG (H+L) antibody, and Licor Odyssey infrared scanner were purchased from Licor Biosciences, Lincoln, Nebr., USA. Symmetric di-methyl arginine antibody was purchased from EMD Millipore, Billerica, Mass., USA. 16% Paraformaldehyde was purchased from Electron Microscopy Sciences, Hatfield, Pa., USA.
Z-138 suspension cells were maintained in growth medium (RPMI 1640 supplemented with 10% v/v heat inactivated fetal bovine serum and 100 units/mL penicillin-streptomycin) and cultured at 37° C. under 5% CO2.
Cell Treatment, in Cell Western (ICW) for Detection of Symmetric Di-Methyl Arginine and DNA Content.
Z-138 cells were seeded in assay medium at a concentration of 50,000 cells per mL to a 384-well cell culture plate with 50 μL per well. Compound (100 nL) from 384 well source plates was added directly to 384 well cell plate. Plates were incubated at 37° C., 5% CO2 for 96 hours. After four days of incubation, 40 μL of cells from incubated plates were added to poly-D-lysine coated 384 well culture plates (BD Biosciences 356697). Plates were incubated at room temperature for 30 minutes then incubated at 37° C., 5% CO2 for 5 hours. After the incubation, 40 μL per well of 8% paraformaldehyde in PBS (16% paraformaldahyde was diluted to 8% in PBS) was added to each plate and incubated for 30 minutes. Plates were transferred to a Biotek 405 plate washer and washed 5 times with 100 μL per well of wash buffer (1×PBS with 0.1% Triton X-100 (v/v)). Next 30 μL per well of Odyssey blocking buffer were added to each plate and incubated 1 hour at room temperature. Blocking buffer was removed and 20 μL per well of primary antibody was added (symmetric di-methyl arginine diluted 1:100 in Odyssey buffer with 0.1% Tween 20 (v/v)) and plates were incubated overnight (16 hours) at 4° C. Plates were washed 5 times with 100 μL per well of wash buffer. Next 20 μL per well of secondary antibody was added (1:200 800CW goat anti-rabbit IgG (H+L) antibody, 1:1000 DRAQ5 (Biostatus limited) in Odyssey buffer with 0.1% Tween 20 (v/v)) and incubated for 1 hour at room temperature. The plates were washed 5 times with 100 μL per well wash buffer then 1 time with 100 μL per well of water. Plates were allowed to dry at room temperature then imaged on the Licor Odyssey machine which measures integrated intensity at 700 nm and 800 nm wavelengths. Both 700 and 800 channels were scanned.
First, the ratio for each well was determined by:
Each plate included fourteen control wells of DMSO only treatment (minimum inhibition) as well as fourteen control wells for maximum inhibition treated with 3 μM of a reference compound (Background wells). The average of the ratio values for each control type was calculated and used to determine the percent inhibition for each test well in the plate. Reference compound was serially diluted three-fold in DMSO for a total of nine test concentrations, beginning at 3 μM. Percent inhibition was determined and IC50 curves were generated using triplicate wells per concentration of compound.

Z-138 cells = test: Z-138 Proliferation Assay (Cell Titer Glo, 5 days); assay type: cell-based; settings: Homo sapiens, 120 h
Excerpt: Z-138 Proliferation Assay
Z-138 suspension cells were purchased from ATCC (American Type Culture Collection, Manassas, Va.). RPMI/Glutamax medium, penicillin-streptomycin, heat inactivated fetal bovine serum were purchased from Life Technologies, Grand Island, N.Y., USA. V-bottom polypropylene 384-well plates were purchased from Greiner Bio-One, Monroe, N.C., USA. Cell culture 384-well white opaque plates were purchased from Perkin Elmer, Waltham, Mass., USA. Cell-Titer Glo® was purchased from Promega Corporation, Madison, Wis., USA. SpectraMax M5 plate reader was purchased from Molecular Devices LLC, Sunnyvale, Calif., USA.
Z-138 suspension cells were maintained in growth medium (RPMI 1640 supplemented with 10% v/v heat inactivated fetal bovine serum and cultured at 37° C. under 5% CO2. Under assay conditions, cells were incubated in assay medium (RPMI 1640 supplemented with 10% v/v heat inactivated fetal bovine serum and 100 units/mL penicillin-streptomycin) at 37° C. under 5% CO2.
For the assessment of the effect of compounds on the proliferation of the Z-138 cell line, exponentially growing cells were plated in 384-well white opaque plates at a density of 10,000 cells/ml in a final volume of 50 μl of assay medium. A compound source plate was prepared by performing triplicate nine-point 3-fold serial dilutions in DMSO, beginning at 10 mM (final top concentration of compound in the assay was 20 μM and the DMSO was 0.2%). A 100 nL aliquot from the compound stock plate was added to its respective well in the cell plate. […] After addition of compounds, assay plates were incubated for 5 days at 37° C., 5% CO2, relative humidity >90%.
Cell viability was measured by quantitation of ATP present in the cell cultures, adding 35 μl of Cell Titer Glo® reagent to the cell plates. Luminescence was read in the SpectraMax M5 microplate reader. The concentration of compound inhibiting cell viability by 50% was determined using a 4-parametric fit of the normalized dose response curves.

T1 sequence (O14744 with tags, fused parts or gaps): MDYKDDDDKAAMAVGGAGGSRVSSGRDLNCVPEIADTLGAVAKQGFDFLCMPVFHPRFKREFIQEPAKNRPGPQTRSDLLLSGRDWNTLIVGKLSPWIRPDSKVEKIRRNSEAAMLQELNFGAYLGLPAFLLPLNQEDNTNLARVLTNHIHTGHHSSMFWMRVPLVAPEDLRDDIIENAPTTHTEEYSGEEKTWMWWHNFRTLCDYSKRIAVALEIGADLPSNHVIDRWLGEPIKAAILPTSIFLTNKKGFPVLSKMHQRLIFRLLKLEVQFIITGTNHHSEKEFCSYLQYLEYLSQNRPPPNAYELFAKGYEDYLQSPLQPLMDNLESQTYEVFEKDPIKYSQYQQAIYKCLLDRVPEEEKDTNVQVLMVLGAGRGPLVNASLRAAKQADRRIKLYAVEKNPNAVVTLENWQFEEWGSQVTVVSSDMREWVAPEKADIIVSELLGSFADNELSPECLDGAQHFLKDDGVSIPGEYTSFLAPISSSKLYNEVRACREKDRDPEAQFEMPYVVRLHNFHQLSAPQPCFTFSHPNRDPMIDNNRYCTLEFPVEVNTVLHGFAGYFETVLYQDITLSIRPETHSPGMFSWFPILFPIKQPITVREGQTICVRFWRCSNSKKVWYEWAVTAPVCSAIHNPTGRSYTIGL
T1 sequence (Q9BQA1 with tags, fused parts or gaps partner limits assumed): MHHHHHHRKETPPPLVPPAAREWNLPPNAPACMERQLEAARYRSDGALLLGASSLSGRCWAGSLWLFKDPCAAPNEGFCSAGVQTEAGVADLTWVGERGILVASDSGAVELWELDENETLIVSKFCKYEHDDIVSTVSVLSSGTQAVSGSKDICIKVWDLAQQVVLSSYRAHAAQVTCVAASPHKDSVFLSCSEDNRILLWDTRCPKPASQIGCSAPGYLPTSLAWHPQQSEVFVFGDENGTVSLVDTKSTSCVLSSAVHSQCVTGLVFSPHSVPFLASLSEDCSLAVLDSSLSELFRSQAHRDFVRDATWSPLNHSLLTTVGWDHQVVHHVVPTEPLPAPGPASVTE

Compound	IC50 (PRMT5/MEP50)	EC50 [1]	EC50 (Z-138 cells)
O=C(NCC(O)CN1CCc2ccccc2C1)c1ccc(OC2CCOC2)cc1 (stereo not shown) [1-10]	< 100 nM	< 100 nM	1000 to 10000 nM
CN1CCC(NC2=NN(C)CC(C(=O)NC[C@H](O)CN3CCc4ccccc4C3)C2)C1 (stereo partly shown) [1-12]	< 100 nM	101 to 1000 nM	> 5000 nM
CN(C)c1cccc2c(S(=O)(=O)NC3CC(=O)N(c4ccccc4)C3)cccc12 (stereo not shown) [Compound 1-4]	101 to 1000 nM	101 to 1000 nM	1000 to 10000 nM
CN(C)c1cccc2c(S(=O)(=O)NC3CCN(Cc4ccccc4)C3)cccc12 (stereo not shown) [Compound 1-5]	101 to 1000 nM	1000 to 10000 nM	> 20000 nM
O=C(CC1NC(N2CCN(c3ccccc3)CC2)=NC1=O)Nc1ccc(Cl)cc1 (stereo not shown) [Compound 1-6]	101 to 1000 nM	101 to 1000 nM	> 20000 nM
CC(=O)N1CCC(Nc2cc(C(=O)NC[C@H](O)CNCc3ccccc3)ccn2)CC1 [Compound 1-8, (R)-2-((1-acetylpiperidin-4-yl)amino)-N-(3-(benzylamino)-2-hydroxypropyl)isonicotinamide]	101 to 1000 nM	–	> 5000 nM
OC(COc1cccc(-c2ccc3ncsc3c2)c1)CN1CCc2ccccc2C1 (stereo not shown) [Compound 1-9]	101 to 1000 nM	1000 to 10000 nM	10000 to 50000 nM
O=C(NC[C@H](O)CN1Cc2ccccc2C1)c1ccnc(NC2CCNC2)c1 (stereo partly shown) [Compound 1-11]	101 to 1000 nM	–	> 20000 nM
Cc1cccc(Cn2ccnc2CN)c1 [Compound 1-13]	1000 to 10000 nM	> 1000 nM	> 5000 nM
Cc1ccc(C(=O)CC2NC(N3CCN(c4ccccc4)CC3)=NC2=O)cc1 (stereo not shown) [Compound 1-14]	101 to 1000 nM	1000 to 10000 nM	> 20000 nM
O=C1CC(NS(=O)(=O)c2cccc3ccccc23)CN1c1ccccc1 (stereo not shown) [Compound 2-4]	101 to 1000 nM	101 to 1000 nM	10000 to 50000 nM
CN(C)c1cccc2c(S(=O)(=O)N[C@H]3CCN(Cc4ccccc4)C3)cccc12 [Compound 2-5, (S)—N-(1-benzylpyrrolidin-3-yl)-5-(dimethylamino)naphthalene-1-sulfonamide]	< 100 nM	101 to 1000 nM	> 20000 nM
CN(C)c1cccc2c(S(=O)(=O)NCCC(N)Cc3ccccc3)cccc12 (stereo not shown) [Compound 2-7, N-(3-amino-4-phenylbutyl)-5-(dimethylamino)naphthalene-1-sulfonamide]	< 100 nM	101 to 1000 nM	1000 to 10000 nM
CC1CC(Nc2cccc(C(=O)NC[C@H](O)CN3CCc4ccccc4C3)c2)CC(C)O1 (stereo partly shown) [Compound 2-9]	< 100 nM	< 100 nM	101 to 1000 nM
CS(=O)(=O)N1CCC(Nc2cncc(C(=O)NC[C@H](O)CN3Cc4ccccc4C3)c2)CC1 [Compound 2-11]	< 100 nM	101 to 1000 nM	10000 to 50000 nM
NCc1nccn1Cc1cccc(Cl)c1 [Compound 2-13]	1000 to 10000 nM	> 1000 nM	> 5000 nM
CN(C)c1cccc2c(S(=O)(=O)NCC3CCN(Cc4ccco4)CC3)cccc12 [Compound 3-3]	101 to 1000 nM	1000 to 10000 nM	10000 to 50000 nM
